Experimental data reported in paper PMC11750622, “Structural insights into translocation and tailored synthesis of hyaluronan” (Nature Structural & Molecular Biology, 2024).

Experiments:
CvHAS [1] = conditions: acceptor (primer) site; UDP-GlcA and Mn2+ present; nanodisc with Nb881 and Nb872; catalytically inactive mutant
CvHAS [2] = target: T1, CvHAS (Paramecium bursaria Chlorella virus CZ-2, UniProt Z9D3Q5ADJ6); test: cryo-EM structure, […] Å; assay type: binding; conditions: formed in situ from GlcNAc and UDP-GlcA; Mn2+; nanodisc with Nb881 and Nb872; also with UDP in 8SNE (3.0 Å)
T1 construct: pET28a-CvHAS, Ni-NTA purified, expressed in E. coli C43; MSP1E3D1 nanodiscs with nanobodies for cryo-EM, IMVs for activity
T1 sequence (Z9D3Q5ADJ6 1-562): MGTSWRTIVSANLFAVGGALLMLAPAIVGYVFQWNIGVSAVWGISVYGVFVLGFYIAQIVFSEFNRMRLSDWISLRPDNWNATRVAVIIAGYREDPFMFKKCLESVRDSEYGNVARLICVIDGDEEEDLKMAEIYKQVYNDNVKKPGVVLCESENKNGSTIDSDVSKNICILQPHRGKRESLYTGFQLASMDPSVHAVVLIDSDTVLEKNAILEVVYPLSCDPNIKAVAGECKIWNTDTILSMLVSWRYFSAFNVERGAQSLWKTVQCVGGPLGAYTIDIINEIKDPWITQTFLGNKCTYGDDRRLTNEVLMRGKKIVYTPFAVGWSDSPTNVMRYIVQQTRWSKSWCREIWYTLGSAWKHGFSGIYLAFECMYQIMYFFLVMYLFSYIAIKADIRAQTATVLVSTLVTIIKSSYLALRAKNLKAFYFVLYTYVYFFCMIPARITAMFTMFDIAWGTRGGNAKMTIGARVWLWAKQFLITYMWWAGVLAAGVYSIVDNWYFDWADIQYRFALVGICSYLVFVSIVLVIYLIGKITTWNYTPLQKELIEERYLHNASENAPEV

CvHAS [3] = target: T1, CvHAS; test: cryo-EM structure, […] Å; assay type: binding; conditions: formed in situ from UDP-GlcNAc and UDP-GlcA; Mn2+; nanodisc with Nb886 and Nb872; minor UDP-GlcA state not excluded
XlHAS1 = target: T2, XlHAS1 (Xenopus laevis, UniProt P13563); test: cryo-EM structure, […] Å; assay type: binding; conditions: Mg2+; Fab complex in GDN; gating loop inserted; active site
T2 construct: gene has1; full-length, N-terminal 12xHis tag, expressed in Sf9 cells, purified in GDN detergent, monomer
T2 sequence (P13563 1-588): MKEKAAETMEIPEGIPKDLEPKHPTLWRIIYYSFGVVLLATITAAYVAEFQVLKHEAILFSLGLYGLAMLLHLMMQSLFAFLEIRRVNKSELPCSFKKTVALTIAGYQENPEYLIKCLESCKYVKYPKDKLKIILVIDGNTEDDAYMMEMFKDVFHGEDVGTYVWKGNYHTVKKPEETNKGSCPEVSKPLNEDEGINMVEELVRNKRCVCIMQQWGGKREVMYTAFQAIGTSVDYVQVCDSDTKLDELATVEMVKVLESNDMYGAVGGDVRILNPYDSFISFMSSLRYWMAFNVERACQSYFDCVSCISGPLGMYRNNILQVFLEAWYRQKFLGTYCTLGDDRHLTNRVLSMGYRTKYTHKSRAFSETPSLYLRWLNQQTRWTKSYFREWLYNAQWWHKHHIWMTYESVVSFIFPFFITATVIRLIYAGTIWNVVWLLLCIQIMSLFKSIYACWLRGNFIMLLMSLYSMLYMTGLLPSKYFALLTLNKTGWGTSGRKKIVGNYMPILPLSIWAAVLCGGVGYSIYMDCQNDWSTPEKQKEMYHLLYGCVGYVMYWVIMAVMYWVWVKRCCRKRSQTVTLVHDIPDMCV

[4] = target: T3, Xenopus laevis HAS isoform 1 (Xenopus laevis, UniProt P13563); test: cryo-EM structure; GDN-solubilised XlHAS1 mixed with Fab at a 1:4 molar ratio, overnight at 4 °C, SEC on Superose 6 in 0.01% GDN; apo, HA-bound and UDP-bound samples; conditions: both partners purified
T3 construct: also called XlHAS1; DG42

CC(=O)N[C@H]1C(O)O[C@H](CO)[C@@H](O)[C@@H]1O (some centres unmarked) [GlcNAc]
cryo-EM structure, 3.2 Å (CvHAS [1]): the GlcNAc primer is well resolved and occupies the same acceptor position

CC(=O)N[C@H]1C(O)O[C@H](CO)[C@@H](O)[C@@H]1O[C@@H]1O[C@H](C(=O)O)[C@@H](O)[C@H](O)[C@H]1O (some centres unmarked) [HA disaccharide]
cryo-EM structure, 3.3 Å (CvHAS [2]): resolves a GlcNAc at the acceptor position that is elongated by a single sugar unit

O=c1ccn([C@@H]2O[C@H](COP(=O)(O)OP(=O)(O)O)[C@@H](O)[C@H]2O)c(=O)[nH]1 [UDP]
cryo-EM structure, 3.0 Å (CvHAS [3]): exposure of WT CvHAS to both of its substrates resulted in a UDP–HA disaccharide-bound conformation
cryo-EM structure, 3.2 Å (XlHAS1): UDP is coordinated by conserved motifs of the GT domain

B1: noninhibitory antibody Fab fragment against XlHAS1 (Fab, V domains shown)
VH: EVQLVESGGGLVQPGGSLRLSCAASGFNVSSYYIHWVRQAPGKGLEWVASISSSSGSTSYADSVKGRFTISADTSKNTAYLQMNSLRAEDTAVYYCARSGYYWGPYFGGFDYWGQGTLVTVSS
VL: DIQMTQSPSSLSASVGDRVTITCRASQSVSSAVAWYQQKPGKAPKLLIYSASSLYSGVPSRFSGSRSGTDFTLTISSLQPEDFATYYCQQSSSSLITFGQGTKVEIK
notes: source: selected from Fab phage library E on XlHAS1 nanodiscs
binding result [4]: binds
